Source: patent publication US12606541B2, “PPARg modulators and methods of use” (Eisai R&D Management Co., Ltd., priority 2020, dated 2026)

Tests used:
His6-TEV-PPARγ-(234-505) = target: T1, His6-TEV-PPARγ-(234-505) (Homo sapiens, UniProt P37231); experiment: TR-FRET Assay to Measure Co-R Peptide Recruitment to PPARγ; format: biochemical; conditions: Co-R peptide (SMRT-ID2) recruitment; top final concentration 20 μM; read-out: TR-FRET i-Ag; AC50
T1 construct: The His6-TEV-PPARγ-(234-505) protein for assay was expressed and purified; TEV cleavage site (N); made in house
T1 sequence (P37231 234-505): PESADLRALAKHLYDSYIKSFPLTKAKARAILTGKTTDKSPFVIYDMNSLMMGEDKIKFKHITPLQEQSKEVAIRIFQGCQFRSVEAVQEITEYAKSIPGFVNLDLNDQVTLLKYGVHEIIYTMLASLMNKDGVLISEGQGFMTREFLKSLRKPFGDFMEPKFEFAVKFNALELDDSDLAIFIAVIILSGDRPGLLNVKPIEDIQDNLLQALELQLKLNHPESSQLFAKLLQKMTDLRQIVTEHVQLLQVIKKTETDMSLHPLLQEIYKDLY
Method in brief: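 Corepressor recruitment is measured by adding terbium-labeled anti-His antibody and FITC SMRT-ID2 peptide, at 5 and 200 nM final, after a 20-minute room-temperature protein–compound incubation. After one further hour, signal is converted to percent response between DMSO and 500 nM T0070907 wells.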

UM-UC-9 engineered cells = experiment: Cell proliferation / short-term viability assay, CellTiter-Glo 144 h; format: cell-based, human; conditions: Homo sapiens, UM-UC-9, 144 h, read-out: CTGlo 144 h UMUC9.5, G150
Method in brief: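 Viability read by CellTiter-Glo 2.0 luminescence at day 7 versus DMSO-vehicle wells and a T0 plate measured on day 0. Cells: UM-UC-9 engineered assay-ready stocks, 500 cells/well in high-glucose DMEM with 10% FBS, 37° C, 5% CO2.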

SMILES | AC50 (His6-TEV-PPARγ-(234-505)) [nM] | IC50 (UM-UC-9 engineered cells) [nM]
COc1cc(-c2cc(C(=O)N3CCC(C(=O)N[C@H]4CCOc5ccc(C#N)cc54)CC3)n[nH]2)c(Cl)cn1 [Example 233, (S)-1-(5-(5-chloro-2-methoxypyridin-4-yl)-1H-pyrazole-3-carbonyl)-N-(6-cyanochroman-4-yl)piperidine-4-carboxamide] | 196 | 3430
COc1cc(-c2cc(C(=O)N3CCC(C(=O)NCc4ccc5c(c4)CC(=O)N5C)CC3)n[nH]2)c(Cl)cn1 [Example 235, 1-(5-(5-chloro-2-methoxypyridin-4-yl)-1H-pyrazole-3-carbonyl)-N-((1-methyl-2-oxoindolin-5-yl)methyl)piperidine-4-carboxamide] | 404 | 2360
COc1cc(-c2cc(C(=O)N3CCC(C(=O)NCc4ccc5c(c4)CCS5(=O)=O)CC3)n[nH]2)c(Cl)cn1 [Example 237, 1-(5-(5-chloro-2-methoxypyridin-4-yl)-1H-pyrazole-3-carbonyl)-N-((1,1-dioxido-2,3-dihydrobenzo[b]thiophen-5-yl)methyl)piperidine-4-carboxamide] | 722 | > 10000
COc1cc(-c2cc(C(=O)N3CCC(C(=O)NCc4nccc(C(F)F)n4)CC3)n[nH]2)c(Cl)cn1 [Example 238, 1-(5-(5-chloro-2-methoxypyridin-4-yl)-1H-pyrazole-3-carbonyl)-N-((4-(difluoromethyl)pyrimidin-2-yl)methyl)piperidine-4-carboxamide] | 839 | 5160
COc1cc(-c2cc(C(=O)N3CCC(C(=O)NCc4cccc(C(F)F)n4)CC3)n[nH]2)c(Cl)cn1 [Example 239, 1-(5-(5-chloro-2-methoxypyridin-4-yl)-1H-pyrazole-3-carbonyl)-N-((6-(difluoromethyl)pyridin-2-yl)methyl)piperidine-4-carboxamide] | 246 | 1400
COc1cc(-c2cc(C(=O)N3CCC(C(=O)NCc4ncc5c(n4)CCC5)CC3)n[nH]2)c(Cl)cn1 [Example 241, 1-(5-(5-chloro-2-methoxypyridin-4-yl)-1H-pyrazole-3-carbonyl)-N-((6,7-dihydro-5H-cyclopenta[d]pyrimidin-2-yl)methyl)piperidine-4-carboxamide] | 880 | 3480
COc1cc(-c2cc(C(=O)N3CCC(C(=O)NCc4ccc5c(c4)C(C)(C)C(=O)N5)CC3)n[nH]2)c(Cl)cn1 [Example 242, 1-(5-(5-chloro-2-methoxypyridin-4-yl)-1H-pyrazole-3-carbonyl)-N-((3,3-dimethyl-2-oxoindolin-5-yl)methyl)piperidine-4-carboxamide] | 74.2 | 1660
COc1cc(-c2cc(C(=O)N3CCC(C(=O)NCc4c(F)ccc5[nH]cnc45)CC3)n[nH]2)c(Cl)cn1 [Example 243, 1-(5-(5-chloro-2-methoxypyridin-4-yl)-1H-pyrazole-3-carbonyl)-N-((5-fluoro-1H-benzo[d]imidazol-4-yl)methyl)piperidine-4-carboxamide] | 25.8 | 414
COc1cc(-c2cc(C(=O)N3CCC(C(=O)NCc4cc5ccccc5[nH]4)CC3)n[nH]2)c(Cl)cn1 [Example 250, N-((1H-indol-2-yl)methyl)-1-(5-(5-chloro-2-methoxypyridin-4-yl)-1H-pyrazole-3-carbonyl)piperidine-4-carboxamide] | 24.7 | 430
COc1cc(-c2cc(C(=O)N3CCC(C(=O)Nc4cccc(C)n4)CC3)n[nH]2)c(Cl)cn1 [Example 251, 1-(5-(5-chloro-2-methoxypyridin-4-yl)-1H-pyrazole-3-carbonyl)-N-(6-methylpyridin-2-yl)piperidine-4-carboxamide] | 254 | 1380
COc1cc(-c2cc(C(=O)N3CCC(C(=O)NCc4nccc5[nH]ccc45)CC3)n[nH]2)c(Cl)cn1 [Example 254, N-((1H-pyrrolo[3,2-c]pyridin-4-yl)methyl)-1-(5-(5-chloro-2-methoxypyridin-4-yl)-1H-pyrazole-3-carbonyl)piperidine-4-carboxamide] | 58.8 | > 2000
